Source: patent US20110166059A1, “MEANS AND METHODS FOR EVALUATING A THERAPY WITH A P38 MAP KINASE INHIBITOR” (priority 2008, published 2011)

Tests used:
[1] = tested on: LPS-stimulated human monocytes; test: Microarray gene expression profile of long-term LPS-stimulated monocytes in the presence of kinase inhibitors; format: cell-based; settings: for late-stage LPS-induced gene expression change (principal component analysis, FIG. 4): long-term (16 hours) LPS-treated monocytes, 100 ng/ml LPS, inhibitor 10 μM
Experimental: (§1) Monocytes were isolated from pooled human buffy coats by Ficoll-Paque and subsequent Percoll (Pharmacia, Freiburg, Germany) density-gradient centrifugation to greater than 90% purity. Monocytes were cultured (1×10^6 cells/nil) in hydrophobic Teflon bags (Hereus, Hanau, Germany) in McCoy's 5a medium (Biochrom, Berlin, Germany) supplemented with 15% FCS, 2 mM L-glutamine, 200 IU penicillin, 100 μg/ml streptomycin and 1× NEAA (all from Biochrom, Berlin, Germany) and allowed to rest for 18 h prior to stimulation. Monocytes were exposed for 4 and 16 hours to 100 ng/ml LPS in the absence or presence of 10 μM PD98059, 10 μM GF109203X or 10 μm SB202190, respectively, or were left untreated
Total cellular RNA was isolated from 3 independent experiments with untreated and LPS-stimulated human monocytes in the absence or presence of pharmacological kinase inhibitors (RNeasy kit; Qiagen, Hilden, Germany). RNA preparation, samples preparation and hybridization to Affymetrix Human Genome 133 A Gene Chip arrays were performed according to the manufacturer's instructions (Affymetrix, Santa Clara, Calif.).
Ten micrograms of fragmented cRNA was, together with control cRNAs and grid alignment oligonucleotides, hybridized for 16 hours under constant rotation at 45° C. to Affymetrix Human Genome 133 A Gene Chip arrays (Affymetrix). Arrays were washed and stained using the Gene Chip Fluidics Station 400 (Affymetrix). Fluorescent signals were detected by the HP G2500A Gene Array Scanner (Affymetrix).
Data were processed by MicroArray Suite (MAS) Software 5.0 (Affymetrix). Signals were scaled to a target intensity of 100 and log transformed. The algorithm applied in the MAS 5.0 software assigned individual average background values to each cell intensity and subtracted it from single raw cell intensities Single raw values were calculated for each probe set (i.e., transcript from the median of discrimination values and their significance was assessed by using a one-sided Wilcoxon rank test).
While the MAS 5.0 software only allows comparison of 2 individuals data sets, we further studied the Affymetrix intensity files with the Expressionist Suite software package (GeneData, Basel, Switzerland) for a more sophisticated statistical analysis. […] The software package includes the Expressionist Refiner v3.0.4 which permits a global chip quality control with detection and masking of outliers and array defects, fluorescence gradient correction, and variance regularization. For final identification of significant gene expression difference we used Expressionist Analyst v4.0.5. First, data were normalized to a logarithmic mean of 180 in all experiments. […] Finally, n-fold changes were determined and screened for their significance by applying a t test. […]

[2] = tested on: promoter regions of LPS-regulated proinflammatory genes (VCAM, IL8, DUSP1, TNF, MYC) in monocytes; test: Chromatin immunoprecipitation (ChIP) of histone acetylation and methylation at promoters of pro-inflammatory genes in LPS-treated monocytes; format: cell-based, human; settings: long-term (16 h) LPS treatment, ongoing inhibition of p38 MAP kinase; FIGS. 8 and 10
Experimental: as §1
After stimulation, monocytes were formalin-fixed, washed, lysed, and sonicated. DNA-protein complexes were immunoprecipitated with polyclonal histone-antibodies against H3K4 (abcam, Cambridge, UK), H3K79 and AcH4 (both upstate, Lake Placid, N.Y.). […] PCR products were processed by using the QuantiTect SYBR Green PCR kit to perform quantitative RT-PCRs employing the ABI PRISM 7900 (Applied Biosystems).

TNF, IL-6 or IL-10 = settings: human volunteers, control group increased after about 2-4 hours; oral inhibitor; cited from earlier work

SMILES | late-stage LPS-induced gene expression change (principal component analysis, FIG. 4) [1] | acetylation of H4 (AcH4) at pro-inflammatory genes [2] | down-regulation of inflammatory response genes in the late stage of LPS-signaling ([1]; human monocytes, 16 hours 100 ng/ml LPS, 10 μm SB202190) | increase in cytokines such as TNF, IL-6 or IL-10 after LPS administration (TNF, IL-6 or IL-10)
COc1cccc(-c2cc(=O)c3ccccc3o2)c1N [PD98059] | did not significantly change gene expression |  |  | 
Oc1ccc(-c2nc(-c3ccncc3)c(-c3ccc(F)cc3)[nH]2)cc1 [SB202190, 4-(4-fluorophenyl)-2-2(4-hydroxyphenyl)-5-(4-pyridyl)-imidazole] | changed significantly | sustained high acetylation of H4 (AcH4) | reversed the down-regulation of inflammatory response genes | 
Cc1ccc(-n2nc(C(C)(C)C)cc2NC(=O)Nc2ccc(OCCN3CCOCC3)c3ccccc23)cc1 [BIRB 796 BS, 1-(5-tert-butyl-2-p-tolyl-2H-pyrazol-3-yl)-3-[4-(2-morpholin-4-yl-ethoxy)-naphthalen-1-yl]-urea] |  |  |  | did not show a significant increase in these cytokines
CN(C)CCCn1cc(C2=C(c3c[nH]c4ccccc34)C(=O)NC2=O)c2ccccc21 [GF109203X] | did not significantly change gene expression |  |  | 
